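All cell lines were grown in 96-well plates and treated with compound for 48 hours. GI50 = concentration required for 50% inhibition of growth.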 Active and inactive are the calls of the source. Cut-off read from the data, not from the text of the source: active = GI50 up to about 1.1 µM and inactive = higher.
Assays:
Assay in all cases: NCI tumour cell line growth inhibition, 48 h
[1] = test system: M19-MEL
[2] = test system: BT-549
[3] = test system: KM-20L2
[4] = test system: DLD-1
[5] = test system: HOP-18
[6] = test system: LXFL 529
[7] = test system: RXF 631
[8] = test system: XF498
[9] = test system: DMS-114

| Structure (SMILES) | GI50 [1] | GI50 [2] | GI50 [3] | GI50 [4] | GI50 [5] | GI50 [6] | GI50 [7] | GI50 [8] | GI50 [9] |
| --- | --- | --- | --- | --- | --- | --- | --- | --- | --- |
| COc1ccc2c[n+](C)c3c4cc(OC)c(OC)cc4ccc3c2c1 | 12.4 µM (inactive) | 2.85 µM (inactive) | 3.52 µM (inactive) | 10.8 µM (inactive) | 28.6 µM (inactive) | 1.21 µM (inactive) | 15.5 µM (inactive) | 9.84 µM (inactive) | 1.05 µM (active) |
| N#CCCN(c1ccc(/C=C2\N=C(c3ccc(Cl)cc3)OC2=O)cc1)S(=O)(=O)c1ccccc1 | > 100 µM (inactive) | – | > 100 µM (inactive) | > 100 µM (inactive) | – | > 100 µM (inactive) | > 100 µM (inactive) | > 100 µM (inactive) | > 100 µM (inactive) |
| c1ccc2c(c1)Cc1c(Cc3csc4ccccc34)ccc3cccc-2c13 | > 100 µM (inactive) | – | > 100 µM (inactive) | > 100 µM (inactive) | – | > 100 µM (inactive) | > 100 µM (inactive) | > 100 µM (inactive) | > 100 µM (inactive) |
| CN(C)CCn1c2c3ccccc3ccc2c2oc(=O)c3ccccc3c21 | 5.46 µM (inactive) | – | 7.08 µM (inactive) | 5.11 µM (inactive) | 16.1 µM (inactive) | 4.98 µM (inactive) | 4.53 µM (inactive) | 15.3 µM (inactive) | – |
| CN(CCCN1C(=O)c2cccc3cc([N+](=O)[O-])cc(c23)C1=O)CCN(C)CCCN1C(=O)c2cccc3cc([N+](=O)[O-])cc(c23)C1=O | 18.2 µM (inactive) | – | > 39.3 µM (inactive) | – | > 39.3 µM (inactive) | 2.45 µM (inactive) | > 39.3 µM (inactive) | > 39.3 µM (inactive) | 33.6 µM (inactive) |
| CCCc1n[nH]c(CCC(=O)N(Cc2ccccc2)Cc2ccccc2)c1CC | > 100 µM (inactive) | – | > 100 µM (inactive) | > 100 µM (inactive) | > 100 µM (inactive) | > 100 µM (inactive) | > 100 µM (inactive) | > 100 µM (inactive) | > 100 µM (inactive) |
| CCOC(=O)C12CCCC1(O)N(NC(=O)OC(C)(C)C)C(C)=C2C(=O)OC (configuration not stated) | > 100 µM (inactive) | – | > 100 µM (inactive) | > 100 µM (inactive) | > 100 µM (inactive) | > 100 µM (inactive) | > 100 µM (inactive) | > 100 µM (inactive) | > 100 µM (inactive) |
| NC(N)NCCCc1cn2c(n1)C1CCCN1C(=O)C2Cc1ccccc1 (configuration not stated) | > 100 µM (inactive) | – | > 100 µM (inactive) | > 100 µM (inactive) | – | > 100 µM (inactive) | > 100 µM (inactive) | > 100 µM (inactive) | > 100 µM (inactive) |
| O=CN1CCN(C=S)CC1 | > 100 µM (inactive) | – | > 100 µM (inactive) | > 100 µM (inactive) | – | > 100 µM (inactive) | > 100 µM (inactive) | > 100 µM (inactive) | > 100 µM (inactive) |
| Cc1ccc2c(c1)SC(c1cc3c(cc1Br)OCO3)S2 (configuration not stated) | 28.6 µM (inactive) | – | 26.1 µM (inactive) | > 31.6 µM (inactive) | > 31.6 µM (inactive) | > 31.6 µM (inactive) | > 10 µM (inactive) | > 100 µM (inactive) | 15.8 µM (inactive) |
| COc1ccc(/C=C/c2cc(OC)c(OC(C)=O)c(OC)c2)cc1 | 30.1 µM (inactive) | – | 35.1 µM (inactive) | 29.9 µM (inactive) | – | 27.5 µM (inactive) | 36.1 µM (inactive) | 34.5 µM (inactive) | 26.5 µM (inactive) |
